BindingDB's records for doi:10.1021/jm990235p (Va Medical Center, 1999)

Biological target: aldehyde dehydrogenase (Saccharomyces cerevisiae)
Assay: In vitro inhibitory activity against yeast Aldehyde dehydrogenase

IC50: 169 µM
Structure (SMILES): CCOC(=O)N(OC(=O)N(CC)CC)S(=O)(=O)c1ccccc1 [ethyl [(diethylamino)carbonyl]oxy(phenylsulfonyl)carbamate]
